Where two headings read alike, the source gives them in different places.
Key:
[1] = biological target: T1, JAK2 (Homo sapiens, UniProt O60674); experiment: Recombinant Human JAK2 Kinase Assay (TRF); assay type: biochemical; conditions: read-out: JAK2 Potency
T1 construct: host or cells: baculovirus expression system
Outline: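 Baculovirus-expressed JAK2 (15 ng/ml) phosphorylated a biotinylated 15-mer peptide captured on Neutravidin, in 20 mM HEPES pH 7.2, 0.2 μM ATP, 1 mM MnCl2, 0.1% BSA, 2.5% DMSO final, 20 min at room temperature. Phosphoproduct detected by time-resolved fluorescence with Eu-N1-labelled PY100 antibody.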

[2] = biological target: T2, ALK (Homo sapiens, UniProt Q9UM73); experiment: ALK Kinase Assay (ELISA/TRF, PLC-γ substrate); assay type: biochemical; conditions: read-out: ALK Potency
T2 construct: host or cells: baculovirus expression system
Outline: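 Time-resolved fluorescence ELISA using Eu-N1 PT66 antibody to detect phosphorylated PLC-γ (coated at 10 μg/mL). Enzyme at 30 ng/ml ALK; 15 min incubation, 37° C.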

[3] = JAK2 kinase inhibition, 0.2 μM ATP
[4] = ALK kinase inhibition, 1 μM ATP

T2 sequence (Q9UM73 19-1620): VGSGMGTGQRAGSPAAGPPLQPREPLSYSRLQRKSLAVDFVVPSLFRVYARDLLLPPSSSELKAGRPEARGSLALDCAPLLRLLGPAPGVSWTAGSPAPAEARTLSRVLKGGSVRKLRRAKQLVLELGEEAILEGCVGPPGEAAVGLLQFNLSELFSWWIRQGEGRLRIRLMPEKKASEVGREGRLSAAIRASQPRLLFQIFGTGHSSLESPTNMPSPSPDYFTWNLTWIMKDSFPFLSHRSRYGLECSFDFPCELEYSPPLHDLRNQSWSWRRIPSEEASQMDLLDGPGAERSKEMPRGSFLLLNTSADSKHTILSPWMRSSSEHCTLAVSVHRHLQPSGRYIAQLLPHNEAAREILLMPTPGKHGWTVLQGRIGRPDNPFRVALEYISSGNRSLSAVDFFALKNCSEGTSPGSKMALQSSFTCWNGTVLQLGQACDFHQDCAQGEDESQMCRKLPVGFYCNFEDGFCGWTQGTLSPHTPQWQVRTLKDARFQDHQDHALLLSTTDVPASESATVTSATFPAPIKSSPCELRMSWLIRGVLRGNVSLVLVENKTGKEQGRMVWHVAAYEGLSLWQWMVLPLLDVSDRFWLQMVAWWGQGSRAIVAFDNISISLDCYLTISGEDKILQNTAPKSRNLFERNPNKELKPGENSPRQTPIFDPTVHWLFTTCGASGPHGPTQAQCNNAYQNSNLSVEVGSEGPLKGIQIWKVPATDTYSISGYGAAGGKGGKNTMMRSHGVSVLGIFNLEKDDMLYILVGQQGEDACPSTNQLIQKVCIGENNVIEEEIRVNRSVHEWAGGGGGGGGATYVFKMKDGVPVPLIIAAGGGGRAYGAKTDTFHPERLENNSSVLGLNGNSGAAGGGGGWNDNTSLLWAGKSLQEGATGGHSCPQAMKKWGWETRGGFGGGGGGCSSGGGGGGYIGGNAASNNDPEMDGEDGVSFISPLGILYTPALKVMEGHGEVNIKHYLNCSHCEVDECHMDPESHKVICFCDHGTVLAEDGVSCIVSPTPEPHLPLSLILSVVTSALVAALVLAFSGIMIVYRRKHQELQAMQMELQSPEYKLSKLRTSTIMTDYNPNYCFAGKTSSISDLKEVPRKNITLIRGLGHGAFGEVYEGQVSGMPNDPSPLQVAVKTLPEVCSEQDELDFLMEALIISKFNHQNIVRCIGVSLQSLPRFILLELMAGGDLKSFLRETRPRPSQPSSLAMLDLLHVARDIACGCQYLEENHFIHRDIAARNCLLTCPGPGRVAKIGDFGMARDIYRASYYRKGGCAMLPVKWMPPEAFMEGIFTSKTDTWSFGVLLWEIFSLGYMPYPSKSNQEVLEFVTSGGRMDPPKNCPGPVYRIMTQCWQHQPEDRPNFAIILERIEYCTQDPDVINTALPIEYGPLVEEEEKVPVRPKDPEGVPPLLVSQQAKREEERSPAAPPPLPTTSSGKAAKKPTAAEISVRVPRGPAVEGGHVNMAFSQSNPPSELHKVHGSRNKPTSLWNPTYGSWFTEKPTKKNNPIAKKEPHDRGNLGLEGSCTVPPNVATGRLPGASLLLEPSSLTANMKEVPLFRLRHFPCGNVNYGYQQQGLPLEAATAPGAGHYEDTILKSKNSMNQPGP
T1 sequence (O60674 whole entry): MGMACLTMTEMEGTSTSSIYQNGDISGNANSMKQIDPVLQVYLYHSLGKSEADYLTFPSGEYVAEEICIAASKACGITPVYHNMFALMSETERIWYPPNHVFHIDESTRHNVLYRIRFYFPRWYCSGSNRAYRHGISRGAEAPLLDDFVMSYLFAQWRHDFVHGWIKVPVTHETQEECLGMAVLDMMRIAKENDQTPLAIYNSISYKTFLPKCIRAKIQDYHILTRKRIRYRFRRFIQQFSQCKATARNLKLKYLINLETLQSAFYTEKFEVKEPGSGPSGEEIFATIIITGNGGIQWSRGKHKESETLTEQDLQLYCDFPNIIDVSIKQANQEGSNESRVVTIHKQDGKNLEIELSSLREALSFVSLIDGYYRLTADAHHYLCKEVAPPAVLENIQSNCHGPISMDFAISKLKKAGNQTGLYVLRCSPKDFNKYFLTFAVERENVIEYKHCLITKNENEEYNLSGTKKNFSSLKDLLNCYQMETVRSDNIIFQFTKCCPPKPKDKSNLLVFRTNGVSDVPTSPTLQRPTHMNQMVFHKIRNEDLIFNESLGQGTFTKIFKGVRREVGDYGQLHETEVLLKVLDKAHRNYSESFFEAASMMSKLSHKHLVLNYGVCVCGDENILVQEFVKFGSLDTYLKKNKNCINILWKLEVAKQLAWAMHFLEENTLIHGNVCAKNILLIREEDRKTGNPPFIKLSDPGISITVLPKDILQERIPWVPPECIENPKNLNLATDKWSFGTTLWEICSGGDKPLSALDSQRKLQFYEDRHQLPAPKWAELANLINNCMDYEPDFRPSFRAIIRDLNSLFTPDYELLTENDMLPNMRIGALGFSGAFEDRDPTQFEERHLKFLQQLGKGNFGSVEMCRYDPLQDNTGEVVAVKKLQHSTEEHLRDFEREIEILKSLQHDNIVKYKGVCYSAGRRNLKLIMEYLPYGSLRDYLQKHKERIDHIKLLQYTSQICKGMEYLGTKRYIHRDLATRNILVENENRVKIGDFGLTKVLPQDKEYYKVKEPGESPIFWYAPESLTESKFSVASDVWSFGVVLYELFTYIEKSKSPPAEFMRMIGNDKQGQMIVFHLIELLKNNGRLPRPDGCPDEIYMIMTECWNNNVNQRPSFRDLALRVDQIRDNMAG

COc1cc(N2CCC(N3CCCN(C)CC3)CC2)ccc1Nc1ncc2ccc(-c3ccccc3N(C)S(C)(=O)=O)n2n1 [Example 784, N-[2-(2-{2-Methoxy-4-[4-(4-methyl-[1,4]diazepan-1-yl)-piperidin-1-yl]-phenylamino}-pyrrolo[2,1-f][1,2,4]triazin-7-yl)-phenyl]-N-methyl-methanesulfonamide]
IC50 [1, 3]: 100 to 1000 nM
IC50 [2, 4]: < 100 nM

CCN1CC=C(c2ccc(Nc3ncc4ccc(-c5ccccc5N(C)S(C)(=O)=O)n4n3)c(OC)c2)CC1 [Example 744, N-(2-{2-[4-(1-Ethyl-1,2,3,6-tetrahydro-pyridin-4-yl)-2-methoxy-phenylamino]-pyrrolo[2,1-f][1,2,4]triazin-7-yl}-phenyl)-N-methyl-methanesulfonamide]
IC50 [1, 3]: 1000 to 10000 nM
IC50 [2, 4]: < 100 nM

N-{2-[2-(2-Oxo-2,3-dihydro-benzooxazol-6-ylamino)pyrrolo[2,1-f][1,2,4]triazin-7-yl]phenyl}methanesulfonamide [Example 629]
IC50 [1, 3]: < 100 nM
IC50 [2, 4]: 100 to 1000 nM

COc1ccccc1-c1ccc2cnc(Nc3cccc(C(=O)N4CCOCC4)c3)nn12 [Example 327, {3-[7-(2-Methoxy-phenyl)-pyrrolo[2,1-f][1,2,4]triazin-2-ylamino]-phenyl}-morpholin-4-yl-methanone]
IC50 ([1]; JAK2 Kinase Inhibition): < 100 nM
IC50 ([2]; ALK Kinase Inhibition): 1000 to 10000 nM

CN1CCN(c2ccc(Nc3ncc4cc(-c5ccncc5)cn4n3)cc2)CC1 [Example 1158]
IC50 [1, 3]: < 100 nM
IC50 [2, 4]: > 10000 nM

COc1cc(N2CCN(C[C@@H](C)O)CC2)ccc1Nc1ncc2ccc(-c3cc(Cl)ccc3OC)n2n1 [Example 756, (R)-1-(4-{4-[7-(5-Chloro-2-methoxy-phenyl)-pyrrolo[2,1-f][1,2,4]triazin-2-ylamino]-3-methoxy-phenyl}-piperazin-1-yl)-propan-2-ol]
IC50 [1, 3]: < 100 nM
IC50 [2, 4]: < 100 nM

COc1ccccc1-c1ccc2cnc(-c3nc4cc(N5CCN(C)CC5)ccc4[nH]3)nn12 [Example 1505, 7-(2-Methoxy-phenyl)-2-[5-(4-methyl-piperazin-1-yl)-1H-benzimidazol-2-yl]-pyrrolo[2,1-f][1,2,4]triazine]
IC50 ([1]; JAK2 Kinase Inhibition): 1000 to 10000 nM
IC50 ([2]; ALK Kinase Inhibition): 1000 to 10000 nM

CS(=O)(=O)Nc1cccc(-c2ccc3cnc(Nc4ccn(CCN5CCOCC5)n4)nn23)c1 [Example 1185, N-(3-{2-[1-(2-Morpholin-4-yl-ethyl)-1H-pyrazol-3-ylamino]-pyrrolo[2,1-f][1,2,4]triazin-7-yl}-phenyl)-methanesulfonamide]
IC50 [1, 3]: < 100 nM
IC50 [2, 4]: 1000 to 10000 nM

O=S(=O)(NCCO)c1cccc(-c2ccc3cnc(Nc4ccc(N5CCOCC5)cc4)nn23)c1 [Example 368, N-(2-Hydroxy-ethyl)-3-[2-(4-morpholin-4-yl-phenylamino)-pyrrolo[2,1-f][1,2,4]triazin-7-yl]-benzenesulfonamide]
IC50 ([1]; JAK2 Kinase Inhibition): < 100 nM
IC50 ([2]; ALK Kinase Inhibition): 100 to 1000 nM

COc1cc(C2CCN(C(=O)CN)CC2)ccc1Nc1ncc2ccc(-c3ccccc3N(C)S(C)(=O)=O)n2n1 [Example 824, N-[2-(2-{4-[1-(2-Amino-acetyl)-piperidin-4-yl]-2-methoxy-phenylamino}-pyrrolo[2,1-f][1,2,4]triazin-7-yl)-phenyl]-N-methyl-methanesulfonamide]
IC50 [1, 3]: 1000 to 10000 nM
IC50 [2, 4]: < 100 nM

CCN1CCOC(c2ccc(Nc3ncc4ccc(-c5ccccc5N(C)S(C)(=O)=O)n4n3)cc2)C1 (stereo not shown) [Example 995, N-(2-{2-[4-(4-Ethyl-morpholin-2-yl)-phenylamino]-pyrrolo[2,1-f][1,2,4]triazin-7-yl}-phenyl)-N-methyl-methanesulfonamide]
IC50 [1, 3]: < 100 nM
IC50 [2, 4]: < 100 nM

COc1ccc(-c2ccc3cnc(Nc4ccc(Cl)c(CN5CCOCC5)c4)nn23)cn1 [Example 973, (4-Chloro-3-morpholin-4-ylmethyl-phenyl)-[7-(6-methoxy-pyridin-3-yl)-pyrrolo[2,1-f][1,2,4]triazin-2-yl]-amine]
IC50 [1, 3]: < 100 nM
IC50 [2, 4]: > 10000 nM

CN1CCCC1COc1cc(Nc2ncc3ccc(-c4cccc(S(=O)(=O)NC(C)(C)C)c4)n3n2)ccc1Cl (stereo not shown) [Example 1009, N-tert-Butyl-3-{2-[4-chloro-3-(1-methyl-pyrrolidin-2-ylmethoxy)-phenylamino]-pyrrolo[2,1-f][1,2,4]triazin-7-yl}-benzenesulfonamide]
IC50 [1, 3]: < 100 nM
IC50 [2, 4]: 100 to 1000 nM

CN1CCN(c2ccc(Nc3ncc4ccc(Cc5ccccc5)n4n3)cc2)CC1 [Example 1140, (7-Benzyl-pyrrolo[2,1-f][1,2,4]triazin-2-yl)-[4-(4-methyl-piperazin-1-yl)-phenyl]-amine]
IC50 [1, 3]: < 100 nM
IC50 [2, 4]: < 100 nM

COc1cc(N2CCC(CN3CCN(C)CC3)CC2)ccc1Nc1ncc2ccc(-c3ccccc3OC)n2n1 [Example 468, {2-Methoxy-4-[4-(4-methyl-piperazin-1-ylmethyl)-piperidin-1-yl]-phenyl}-[7-(2-methoxy-phenyl)-pyrrolo[2,1-f][1,2,4]triazin-2-yl]-amine]
IC50 ([1]; JAK2 Kinase Inhibition): 100 to 1000 nM
IC50 ([2]; ALK Kinase Inhibition): < 100 nM

OCCN1CCN(c2ccc(Nc3ncc4ccc(-c5cccc(Cl)c5)n4n3)cc2)CC1 [Example 1134, 2-(4-{4-[7-(3-Chloro-phenyl)-pyrrolo[2,1-f][1,2,4]triazin-2-ylamino]-phenyl}-piperazin-1-yl)-ethanol]
IC50 [1, 3]: < 100 nM
IC50 [2, 4]: < 100 nM

Cc1cc(Nc2ncc3ccc(-c4cccc(S(=O)(=O)NC(C)(C)C)c4)n3n2)ccc1C1CCN(C)CC1 [Example 940, N-tert-Butyl-3-{2-[3-methyl-4-(1-methyl-piperidin-4-yl)-phenylamino]-pyrrolo[2,1-f][1,2,4]triazin-7-yl}-benzenesulfonamide]
IC50 [1, 3]: < 100 nM
IC50 [2, 4]: < 100 nM

Clc1cccc(-c2ccc3cnc(Nc4ccc(N5CCCC(N6CCOCC6)C5)cc4)nn23)c1 (stereo not shown) [Example 345, [7-(3-Chloro-phenyl)-pyrrolo[2,1-f][1,2,4]triazin-2-yl]-[4-(3-morpholin-4-yl-piperidin-1-yl)-phenyl]-amine]
IC50 ([1]; JAK2 Kinase Inhibition): < 100 nM
IC50 ([2]; ALK Kinase Inhibition): 100 to 1000 nM

CS(=O)(=O)c1ccc(-c2ccc3cnc(Nc4cccc(N5CCOCC5)c4)nn23)cc1 [Example 163, [7-(4-Methanesulfonyl-phenyl)-pyrrolo[2,1-f][1,2,4]triazin-2-yl]-(3-morpholin-4-yl-phenyl)-amine]
IC50 ([1]; JAK2 Kinase Inhibition): < 100 nM
IC50 ([2]; ALK Kinase Inhibition): 1000 to 10000 nM

CN1CCN(C)C(c2cccc(Nc3ncc4ccc(-c5cccc(S(C)(=O)=O)c5)n4n3)c2)C1=O (stereo not shown) [Example 1080, 3-{3-[7-(3-Methanesulfonyl-phenyl)-pyrrolo[2,1-f][1,2,4]triazin-2-ylamino]-phenyl}-1,4-dimethyl-piperazin-2-one]
IC50 [1, 3]: < 100 nM
IC50 [2, 4]: 1000 to 10000 nM

COc1ccccc1-c1ccc2cnc(Nc3ccc(C4CCN(C)CC4)c(OC)c3)nn12 [Example 908, [3-Methoxy-4-(1-methyl-piperidin-4-yl)-phenyl]-[7-(2-methoxy-phenyl)-pyrrolo[2,1-f][1,2,4]triazin-2-yl]-amine]
IC50 [1, 3]: < 100 nM
IC50 [2, 4]: < 100 nM

COc1ccc(Cl)cc1-c1ccc2cnc(Nc3ccc(N4CCC(N5CCOCC5)CC4)cc3)nn12 [Example 335, [7-(5-Chloro-2-methoxy-phenyl)-pyrrolo[2,1-f][1,2,4]triazin-2-yl]-[4-(4-morpholin-4-yl-piperidin-1-yl)-phenyl]-amine]
IC50 ([1]; JAK2 Kinase Inhibition): < 100 nM
IC50 ([2]; ALK Kinase Inhibition): 100 to 1000 nM

COc1cc(N2CCCC(N3CCN(C)CC3)C2)ccc1Nc1ncc2ccc(-c3ccccc3OC)n2n1 (single isomer, unassigned) [Example 1442, {2-Methoxy-4-[3-(4-methyl-piperazin-1-yl)-piperidin-1-yl]-phenyl}-[7-(2-methoxy-phenyl)-pyrrolo[2,1-f][1,2,4]triazin-2-yl]-amine]
IC50 ([1]; JAK2 Kinase Inhibition): 100 to 1000 nM
IC50 ([2]; ALK Kinase Inhibition): < 100 nM

CN1CCN(C(=O)c2ccc(Nc3ncc4ccc(-c5cccc(S(=O)(=O)NC(C)(C)C)c5)n4n3)cc2)CC1 [Example 1410, N-tert-Butyl-3-{2-[4-(4-methyl-piperazine-1-carbonyl)-phenylamino]-pyrrolo[2,1-f][1,2,4]triazin-7-yl}-benzenesulfonamide]
IC50 ([1]; JAK2 Kinase Inhibition): < 100 nM
IC50 ([2]; ALK Kinase Inhibition): 100 to 1000 nM

CN(c1cccc(-c2ccc3cnc(Nc4ccc(C5CCN(CC(N)=O)CC5)cc4)nn23)c1)S(C)(=O)=O [Example 959, 2-[4-(4-{7-[3-(Methanesulfonyl-methyl-amino)-phenyl]-pyrrolo[2,1-f][1,2,4]triazin-2-ylamino}-phenyl)-piperidin-1-yl]-acetamide]
IC50 [1, 3]: < 100 nM
IC50 [2, 4]: 100 to 1000 nM

CC(=O)c1ccccc1-c1ccc2cnc(Nc3ccc(N4CCN(C)CC4)cc3)nn12 [Example 402, 1-(2-{2-[4-(4-Methyl-piperazin-1-yl)-phenylamino]-pyrrolo[2,1-f][1,2,4]triazin-7-yl}-phenyl)-ethanone]
IC50 ([1]; JAK2 Kinase Inhibition): < 100 nM
IC50 ([2]; ALK Kinase Inhibition): 100 to 1000 nM

COCCN1CCc2ccc(Nc3ncc4ccc(-c5ccc(S(C)(=O)=O)cc5)n4n3)cc2CC1 [Example 89, [7-(4-Methanesulfonyl-phenyl)-pyrrolo[2,1-f][1,2,4]triazin-2-yl]-[3-(2-methoxy-ethyl)-2,3,4,5-tetrahydro-1H-benzo[d]azepin-7-yl]-amine]
IC50 ([1]; JAK2 Kinase Inhibition): < 100 nM
IC50 ([2]; ALK Kinase Inhibition): 100 to 1000 nM

CC(=O)Nc1cc(Nc2ncc3ccc(-c4cccnc4)n3n2)ccc1C(C)(C)C [Example 308, N-[2-tert-Butyl-5-(7-pyridin-3-yl-pyrrolo[2,1-f][1,2,4]triazin-2-ylamino)-phenyl]-acetamide]
IC50 ([1]; JAK2 Kinase Inhibition): < 100 nM
IC50 ([2]; ALK Kinase Inhibition): 100 to 1000 nM

CNC(=O)c1ccc(-c2ccc3cnc(Nc4ccc(N5CCC(N6CCN(C)CC6)CC5)cc4OC)nn23)cc1 [Example 242, 4-(2-{2-Methoxy-4-[4-(4-methyl-piperazin-1-yl)-piperidin-1-yl]-phenylamino}-pyrrolo[2,1-f][1,2,4]triazin-7-yl)-N-methyl-benzamide]
IC50 ([1]; JAK2 Kinase Inhibition): < 100 nM
IC50 ([2]; ALK Kinase Inhibition): < 100 nM

Reference: US8471005B2 (Cephalon, Inc., priority 2008, dated 2013)
